Patent US20220315578A1, “BRD9 BIFUNCTIONAL DEGRADERS AND THEIR METHODS OF USE” (NOVARTIS AG, priority 2019, published 2022)

Molecular target: T1, BRD9-GFP (Homo sapiens, UniProt Q9H8M2)
T1 construct: CHYSEL (2A cis-acting hydrolase element) remnant after GFP; mCherry is split off as a separate protein (C); expressed in transfected cells; host or cells: HEK293A cells (Invitrogen R70507), lentiviral transduction with pLenti6-BRD9-GFP-CHYSEL-mCherry, blasticidin selection
T1 sequence (Q9H8M2 1-597): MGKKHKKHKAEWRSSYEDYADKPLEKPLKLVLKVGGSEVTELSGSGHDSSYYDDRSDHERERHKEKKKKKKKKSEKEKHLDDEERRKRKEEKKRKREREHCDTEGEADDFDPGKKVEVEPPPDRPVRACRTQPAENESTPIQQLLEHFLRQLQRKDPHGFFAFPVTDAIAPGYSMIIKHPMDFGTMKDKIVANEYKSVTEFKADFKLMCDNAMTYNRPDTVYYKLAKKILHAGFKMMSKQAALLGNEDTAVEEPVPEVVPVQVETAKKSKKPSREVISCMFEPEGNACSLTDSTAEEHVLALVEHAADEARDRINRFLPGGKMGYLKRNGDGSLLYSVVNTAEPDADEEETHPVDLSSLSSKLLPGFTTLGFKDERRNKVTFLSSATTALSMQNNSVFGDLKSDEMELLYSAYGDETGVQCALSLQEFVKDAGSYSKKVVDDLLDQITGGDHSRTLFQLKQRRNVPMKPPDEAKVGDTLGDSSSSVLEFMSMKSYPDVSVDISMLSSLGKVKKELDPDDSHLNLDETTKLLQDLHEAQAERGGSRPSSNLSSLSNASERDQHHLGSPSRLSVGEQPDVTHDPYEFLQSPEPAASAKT
Assay: BRD9-GFP protein abundance flow cytometry assay in HEK293A cells
Assay type: cell-based
Conditions: HEK293A-BRD9-GFP-CHYSEL-mCherry cells; for BRD9 Deg Amax %: 24 h, % protein remaining at the concentration at which maximum degradation is seen; for DC50: 24 h at 37° C., 10-point 1:3 dilution, concentration at which 50% maximal degradation was observed
In short: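 HEK293A cells stably express bicistronic BRD9-GFP-CHYSEL-mCherry and received 24 h treatment at 37° C with a 10-point, 3-fold dilution series from […], in 0.1% DMSO and duplicate. Median GFP/mCherry ratio of 5,000 single cells by flow cytometry, normalized to mCherry-only cells (0%) and DMSO (100%), gave DC50 and Amax (% protein remaining).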

Row | BRD9 Deg Amax % [%] | DC50 [nM] | SMILES
1 | 19.82 | 17 | COc1cc(-c2cn(C)c(=O)c3cnccc23)cc(OC)c1CCN1CCC(OC2CCN(CCn3cccc(CN4CCC(=O)NC4=O)c3=O)CC2)CC1 [Compound C4, 1-((1-(2-(4-((1-(2,6-dimethoxy-4-(2-methyl-1-oxo-1,2-dihydro-2,7-naphthyridin-4-yl)phenethyl)piperidin-4-yl)oxy)piperidin-1-yl)ethyl)-2-oxo-1,2-dihydropyridin-3-yl)methyl)dihydropyrimidine-2,4(1H,3H)-dione]
2 | 14.99 | 4 | CCCn1cc(-c2cc(F)c(CCN3CCC(OC4CCN(C(=O)c5ccc(Cl)c(N6CCC(=O)NC6=O)c5)CC4)CC3)c(OC)c2)c(C)c(C)c1=O [Compound E52, 1-(2-Chloro-5-(4-((1-(4-(4,5-dimethyl-6-oxo-1-propyl-1,6-dihydropyridin-3-yl)-2-fluoro-6-methoxyphenethyl)piperidin-4-yl)oxy)piperidine-1-carbonyl)phenyl)dihydropyrimidine-2,4(1H,3H)-dione]
3 | 14.29 | 5 | CCCCn1cc(-c2cc(F)c(CN3CCC(OC4CCN(C(=O)c5ccc(OC)c(N6CCC(=O)NC6=O)c5)CC4)CC3)c(F)c2)c2ccncc2c1=O [Compound E33, 1-(5-(4-((1-(4-(2-butyl-1-oxo-1,2-dihydro-2,7-naphthyridin-4-yl)-2,6-difluorobenzyl)piperi-din-4-yl)oxy)piperi-dine-1-carbonyl)-2-methoxyphenyl)di-hydro-pyrimidine-2,4(1H,3H)-dione]
4 | 11.66 | 7 | CCCCn1cc(-c2cc(F)c(CN3CCC(OC4CCN(C(=O)c5ccc(OC)c(N6CCC(=O)NC6=O)c5)CC4)CC3)c(OC)c2)c2ccncc2c1=O [Compound E51, 1-(5-(4-((1-(4-(2-butyl-1-oxo-1,2-dihydro-2,7-naphthyridin-4-yl)-2-fluoro-6-methoxybenzyl)-piperidin-4-yl)oxy)piperidine-1-carbonyl)-2-meth-oxyphenyl)dihydro-pyrimidine-2,4(1H,3H)-dione]
5 | 14.78 | 16 | CCCCn1cc(-c2cc(OC)c(CN3CCC(OC4CCN(CCn5cccc(CN6CCC(=O)NC6=O)c5=O)CC4)CC3)cc2OC)c2ccncc2c1=O [Compound D1, 1-((1-(2-(4-((1-(4-(2-butyl-1-oxo-1,2-dihydro-2,7-naphthyridin-4-yl)-2,5-dimethoxybenzyl)piperidin-4-yl)oxy)piperidin-1-yl)ethyl)-2-oxo-1,2-dihydropyridin-3-yl)methyl)dihydropyrimidine-2,4(1H,3H)-dione]
6 | 17.89 | 3 | CCCCn1cc(-c2cc(OC)c(OCC3CCN(CC4CCN(C(=O)c5ccc(Cl)c(N6CCC(=O)NC6=O)c5)CC4)CC3)c(OC)c2)c2ccncc2c1=O [Compound B8, 1-(5-(4-((4-((4-(2-butyl-1-oxo-1,2-dihydro-2,7-naphthyridin-4-yl)-2,6-dimethoxyphenoxy)methyl)piperidin-1-yl)methyl)piperidine-1-carbonyl)-2-chlorophenyl)dihydropyrimidine-2,4(1H,3H)-dione]
7 | 13.47 | 8 | CCCCn1cc(-c2cc(OC)c(CCN3CCC(OC4CCN(C(=O)c5ccc(OC)c(N6CCC(=O)NC6=O)c5)CC4)CC3)c(OC)c2)c2ccncc2c1=O [Compound E50, 1-(5-(4-((1-(4-(2-butyl-1-oxo-1,2-dihydro-2,7-naphthyridin-4-yl)-2,6-dimethoxyphenethyl)-piperidin-4-yl)oxy)piperidine-1-carbonyl)-2-meth-oxyphenyl)dihydro-pyrimidine-2,4(1H,3H)-dione]
8 | 15.69 | 33 | COc1cc(-c2cn(C)c(=O)c3cnccc23)c(OC)cc1CN1CCC(OC2CCN(C(=O)COc3ccc(N4CCC(=O)NC4=O)cc3)CC2)CC1 [Compound E46, 1-(4-(2-(4-((1-(2,5-dimethoxy-4-(2-methyl-1-oxo-1,2-dihydro-2,7-naphthyridin-4-yl)benzyl)piperidin-4-yl)oxy)piperidin-1-yl)-2-oxoethoxy)phenyl)dihydropyrimidine-2,4(1H,3H)-dione]

Continued, compound first:

Row | SMILES | BRD9 Deg Amax % [%] | DC50 [nM]
9 | CCCn1cc(-c2cc(OC)c(CCN3CCC(OC4CCN(C(=O)c5ccc(Cl)c(N6CCC(=O)NC6=O)c5)CC4)CC3)c(OC)c2)cc(C)c1=O [Compound B1, 1-(2-Chloro-5-(4-((1-(2,6-dimethoxy-4-(5-methyl-6-oxo-1-propyl-1,6-dihydropyridin-3-yl)phenethyl)piperidin-4-yl)oxy)piperidine-1-carbonyl)phenyl)dihydropyrimidine-2,4(1H,3H)-dione] | 11.90 | 2
10 | CCCCn1cc(-c2cc(OC)c(CN3CCC(OC4CCN(C(=O)c5ccc(OC)c(N6CCC(=O)NC6=O)c5)CC4)CC3)cc2OC)c2ccncc2c1=O [Compound B3, 1-(5-(4-((1-(4-(2-butyl-1-oxo-1,2-dihydro-2,7-naphthyridin-4-yl)-2,5-dimethoxybenzyl)piperidin-4-yl)oxy)piperidine-1-carbonyl)-2-methoxyphenyl)dihydropyrimidine-2,4(1H,3H)-dione] | 10.95 | 27
11 | CCCCn1cc(-c2cc(OC)c(CCN3CCC(OC4CCN(C(=O)c5ccc(Cl)c(N6CCC(=O)NC6=O)c5)CC4)CC3)c(OC)c2)c2ccncc2c1=O [Compound B4, 1-(5-(4-((1-(4-(2-butyl-1-oxo-1,2-dihydro-2,7-naphthyridin-4-yl)-2,6-dimethoxyphenethyl)piperidin-4-yl)oxy)piperidine-1-carbonyl)-2-chlorophenyl)dihydropyrimidine-2,4(1H,3H)-dione] | 14.82 | 3
12 | COc1ccc(C(=O)N2CCC(OC3CCN(C(=O)/C=C/c4c(OC)cc(-c5cn(C)c(=O)c6cnccc56)cc4OC)CC3)CC2)cc1N1CCC(=O)NC1=O [Compound A31, (E)-1-(5-(4-((1-(3-(2,6-dimethoxy-4-(2-methyl-1-oxo-1,2-dihydro-2,7-naphthyridin-4-yl)phenyl)acryloyl)piperidin-4-yl)oxy)piperidine-1-carbonyl)-2-methoxyphenyl)dihydropyrimidine-2,4(1H,3H)-dione] | 15.11 | 10
13 | COc1cc(-c2cn(C)c(=O)c3cnccc23)ccc1OC1CCN(CC2CCN(C(=O)c3ccc(Cl)c(N4CCC(=O)NC4=O)c3)CC2)CC1 [Compound A10, 1-(2-Chloro-5-(4-((4-(2-methoxy-4-(2-methyl-1-oxo-1,2-dihydro-2,7-naphthyridin-4-yl)phenoxy)piperidin-1-yl)methyl)piperidine-1-carbonyl)phenyl)dihydropyrimidine-2,4(1H,3H)-dione] | 18.93 | 2
14 | COc1cc(-c2cn(C)c(=O)c(C)c2C)ccc1CN1CCN(CC2CCN(C(=O)c3ccc(OC)c(N4CCC(=O)NC4=O)c3)CC2)CC1 [Compound A13, 1-(2-Methoxy-5-(4-((4-(2-methoxy-4-(1,4,5-trimethyl-6-oxo-1,6-dihydropyridin-3-yl)benzyl)piperazin-1-yl)methyl)piperidine-1-carbonyl)phenyl)dihydropyrimidine-2,4(1H,3H)-dione] | 18.05 | 15
15 | COc1cc(-c2cn(C)c(=O)c3cnccc23)cc(OC)c1CN1CCC(OC2CCN(C(=O)c3ccc(C)c(N4CCC(=O)NC4=O)c3)CC2)CC1 [Compound A33, 1-(5-(4-((1-(2,6-Dimethoxy-4-(2-methyl-1-oxo-1,2-dihydro-2,7-naphthyridin-4-yl)benzyl)piperidin-4-yl)oxy)piperidine-1-carbonyl)-2-methylphenyl)dihydropyrimidine-2,4(1H,3H)-dione] | 13.30 | 34
16 | COc1cc(-c2cc(C)c(=O)n(C)c2)c(OC)cc1CN1CCC(OC2CCN(C(=O)COc3ccc(N4CCC(=O)NC4=O)cc3)CC2)CC1 [Compound A7, 1-(4-(2-(4-((1-(4-(1,5-Dimethyl-6-oxo-1,6-dihydropyridin-3-yl)-2,5-dimethoxybenzyl)piperidin-4-yl)oxy)piperidin-1-yl)-2-oxoethoxy)phenyl)dihydropyrimidine-2,4(1H,3H)-dione] | 21.30 | 60
17 | COc1cc(-c2cn(C)c(=O)c3cnccc23)cc(OC)c1CN1CCC(OC2CCN(C(=O)COc3ccc(N4CCC(=O)NC4=O)cc3)CC2)CC1 [Compound A35, 1-(4-(2-(4-((1-(2,6-Dimethoxy-4-(2-methyl-1-oxo-1,2-dihydro-2,7-naphthyridin-4-yl)benzyl)piperidin-4-yl)oxy)piperidin-1-yl)-2-oxoethoxy)phenyl)dihydropyrimidine-2,4(1H,3H)-dione] | 13.19 | 31
